Assay results: ChEMBL document CHEMBL1201862, “PubChem BioAssay data set” (2004)
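Step 1: Grow cells in 96-well plates. Step 2: Expose to compound for 48 hours at 5 concentrations. Step 3: Interpolate endpoints linearly; if unreached, use highest concentration. At the GI50, growth is halved.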 Active and inactive are the calls of the source. No stated cut-off is given here; in the data, active = GI50 up to about 1.1 µM and inactive = higher.

Tests used:
Experiment in all cases: inhibition of tumour cell growth, NCI panel, 48 h
UACC-257 = test system: UACC-257
DU-145 = test system: DU-145
SK-OV-3 = test system: SK-OV-3
K562 = test system: K562
UACC-62 = test system: UACC-62
HOP-92 = test system: HOP-92
SK-MEL-5 = test system: SK-MEL-5
NCI-H226 = test system: NCI-H226
KM12 = test system: KM12
SW-620 = test system: SW-620
SF-268 = test system: SF-268
Hs-578T = test system: Hs-578T
PC-3 = test system: PC-3
TK-10 = test system: TK-10
SNB-19 = test system: SNB-19
OVCAR-3 = test system: OVCAR-3
EKVX = test system: EKVX
MCF7 = test system: MCF7
OVCAR-5 = test system: OVCAR-5
BT-549 = test system: BT-549

Measured: GI50

CCN(CC)CC(O)CNc1ccc(NCC(O)CCl)c2c1C(=O)c1ccccc1C2=O (stereo not given)
inactive: UACC-257 6.04 µM | DU-145 13.4 µM | SK-OV-3 18.9 µM | K562 1.27 µM | UACC-62 14.4 µM | HOP-92 5.58 µM | SK-MEL-5 7.48 µM | NCI-H226 9.95 µM | KM12 4.15 µM | SW-620 1.28 µM | SF-268 2.65 µM | Hs-578T 11.6 µM | PC-3 6.47 µM | TK-10 12.1 µM | SNB-19 12.2 µM | OVCAR-3 6.78 µM | EKVX 14.9 µM | MCF7 1.56 µM | OVCAR-5 15.1 µM | BT-549 2.22 µM

O=S(=O)(CC(Cl)c1ccccc1)c1nc2ccccc2s1 (stereo not given)
inactive: UACC-257 7.8 µM | DU-145 16.5 µM | SK-OV-3 18.7 µM | K562 2.81 µM | UACC-62 15.1 µM | HOP-92 2.88 µM | SK-MEL-5 4.01 µM | NCI-H226 8.11 µM | KM12 17.2 µM | SW-620 5.2 µM | SF-268 13.6 µM | Hs-578T 27.6 µM | PC-3 16 µM | TK-10 19.5 µM | SNB-19 17.8 µM | OVCAR-3 8.53 µM | EKVX 15.8 µM | MCF7 7.48 µM | OVCAR-5 13.7 µM | BT-549 2.98 µM

CCCCCCCCCCCCCCCCCc1cccc(OCOCCOC)c1C(=O)O
inactive: UACC-257 20.5 µM | DU-145 17.7 µM | SK-OV-3 14 µM | K562 30.5 µM | UACC-62 17.7 µM | HOP-92 18.9 µM | SK-MEL-5 20 µM | NCI-H226 17 µM | KM12 17.1 µM | SW-620 20.3 µM | SF-268 17.2 µM | Hs-578T 18.6 µM | PC-3 17.1 µM | TK-10 18.9 µM | SNB-19 21.3 µM | OVCAR-3 16.9 µM | EKVX 18.9 µM | MCF7 21.7 µM | OVCAR-5 16.8 µM | BT-549 16.9 µM

COc1ccc(N2C(=O)C3c4[nH]c5ccc([N+](=O)[O-])cc5c4C4CCC(C(C)(C)C)CC4C3C2=O)cc1 (stereo not given)
inactive: UACC-257 35.2 µM | DU-145 32.8 µM | SK-OV-3 > 100 µM | K562 2.52 µM | UACC-62 24 µM | HOP-92 6.9 µM | SK-MEL-5 12.4 µM | NCI-H226 28 µM | KM12 6.5 µM | SW-620 37.1 µM | SF-268 10.1 µM | Hs-578T 25.4 µM | PC-3 5.21 µM | TK-10 25.2 µM | SNB-19 35.7 µM | OVCAR-3 7.29 µM | EKVX 15.5 µM | MCF7 4.45 µM | OVCAR-5 18.5 µM | BT-549 14.5 µM
